Laboratory results taken from article PMC12052975, “A key residue of the extracellular gate provides quality control contributing to ABCG substrate specificity” (Nature Communications, 2025).
Positions count from the first letter of the chain named.

What was measured:
Assay type in all cases: cell-based
[1] = target: T1, ABCG36/PDR8/PEN3 (Arabidopsis thaliana, UniProt Q9XIE2, L704F); test: radiolabel export from transfected N. benthamiana protoplasts; also stimulates ATPase in microsomes; details: labelled compound; export 25 °C, 15 min; ATPase with 50 μM compound at pH 9.0
T1 construct: full length, 35S:ABCG36-GFP (GFP tag kept), Agrobacterium-transfected Nicotiana benthamiana mesophyll protoplasts or microsomes; full-size PDR-type ABC transporter
T1 sequence (Q9XIE2 1-1469 L704F): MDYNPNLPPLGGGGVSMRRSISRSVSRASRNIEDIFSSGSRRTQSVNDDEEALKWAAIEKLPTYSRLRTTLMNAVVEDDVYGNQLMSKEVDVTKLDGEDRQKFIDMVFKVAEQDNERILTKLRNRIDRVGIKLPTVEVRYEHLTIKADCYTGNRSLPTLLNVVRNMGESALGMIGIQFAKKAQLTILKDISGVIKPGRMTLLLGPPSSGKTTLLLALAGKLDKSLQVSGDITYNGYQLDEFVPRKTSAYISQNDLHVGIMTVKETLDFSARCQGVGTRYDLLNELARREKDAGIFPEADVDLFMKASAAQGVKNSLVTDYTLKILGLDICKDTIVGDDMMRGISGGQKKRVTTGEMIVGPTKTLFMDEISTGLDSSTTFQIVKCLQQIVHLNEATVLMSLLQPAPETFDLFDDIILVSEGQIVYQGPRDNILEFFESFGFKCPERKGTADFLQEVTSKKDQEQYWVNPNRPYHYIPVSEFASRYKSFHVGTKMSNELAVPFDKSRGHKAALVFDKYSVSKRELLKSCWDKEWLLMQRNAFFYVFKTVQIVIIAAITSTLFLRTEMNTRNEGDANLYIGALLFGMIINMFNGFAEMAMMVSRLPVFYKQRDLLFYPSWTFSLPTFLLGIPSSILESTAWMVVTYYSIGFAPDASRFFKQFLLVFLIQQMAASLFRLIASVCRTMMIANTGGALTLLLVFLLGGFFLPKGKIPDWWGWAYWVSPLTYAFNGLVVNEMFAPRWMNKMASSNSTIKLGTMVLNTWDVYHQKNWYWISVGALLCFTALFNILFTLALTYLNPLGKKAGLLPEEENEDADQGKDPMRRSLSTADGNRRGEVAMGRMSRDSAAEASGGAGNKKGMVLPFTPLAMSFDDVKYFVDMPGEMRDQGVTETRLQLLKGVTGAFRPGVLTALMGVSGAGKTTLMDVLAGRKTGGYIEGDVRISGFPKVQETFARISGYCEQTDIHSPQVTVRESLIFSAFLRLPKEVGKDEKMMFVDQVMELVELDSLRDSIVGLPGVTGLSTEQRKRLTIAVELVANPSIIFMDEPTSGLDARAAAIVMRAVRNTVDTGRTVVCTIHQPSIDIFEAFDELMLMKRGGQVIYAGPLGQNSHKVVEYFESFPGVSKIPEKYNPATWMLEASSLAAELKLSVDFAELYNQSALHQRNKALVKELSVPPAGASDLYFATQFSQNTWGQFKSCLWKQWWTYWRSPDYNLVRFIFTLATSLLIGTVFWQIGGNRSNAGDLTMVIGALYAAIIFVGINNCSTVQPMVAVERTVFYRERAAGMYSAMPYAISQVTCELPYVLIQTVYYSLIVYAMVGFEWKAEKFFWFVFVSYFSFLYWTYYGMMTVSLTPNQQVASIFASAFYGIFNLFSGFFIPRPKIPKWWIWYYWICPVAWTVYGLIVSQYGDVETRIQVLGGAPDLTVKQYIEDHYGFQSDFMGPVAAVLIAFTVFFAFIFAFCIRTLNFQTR

[2] = target: T2, ABCG36/PDR8/PEN3 (Arabidopsis thaliana, UniProt Q9XIE2); test: radiolabel export from transfected N. benthamiana protoplasts; also stimulates ATPase in microsomes; specific binding to Arabidopsis microsomes; details: labelled compound; export 25 °C, 15 min; ATPase with 50 μM compound at pH 9.0; binding at 10 nM
T2 construct: full length, 35S:ABCG36-GFP (GFP tag kept), Agrobacterium-transfected Nicotiana benthamiana mesophyll protoplasts or microsomes; full-size PDR-type ABC transporter
T2 sequence (Q9XIE2 1-1469): T1 sequence (Q9XIE2 1-1469 L704F) with F704L

[3] = target: T3, ABCG36/PDR8/PEN3 (Arabidopsis thaliana, UniProt Q9XIE2, L704S); test: radiolabel export from transfected N. benthamiana protoplasts; details: labelled compound; export 25 °C, 15 min
T3 construct: full length, 35S:ABCG36-GFP (GFP tag kept), Agrobacterium-transfected Nicotiana benthamiana mesophyll protoplasts or microsomes; full-size PDR-type ABC transporter
T3 sequence (Q9XIE2 1-1469 L704S): T1 sequence (Q9XIE2 1-1469 L704F) with F704S

Structure (SMILES)	radiolabel export from transfected N. benthamiana protoplasts; also stimulates A [1]	radiolabel export from transfected N. benthamiana protoplasts; also stimulates A [2]	radiolabel export from transfected N. benthamiana protoplasts [3]
O=C(O)CCCc1c[nH]c2ccccc12 [IBA, indole-3-butyric acid]	the L704F (abcg36-5) variant had no effect on ABCG36-mediated IBA export	stimulated by its substrates (IBA and CLX) but not by non-transported indolic compounds	–
c1ccc2c(-c3nccs3)c[nH]c2c1 [CLX, 3-thiazol-2-yl-indole]	–	stimulated by its substrates (IBA and CLX) but not by non-transported indolic compounds	–
O=C(O)Cc1c[nH]c2ccccc12 [IAA]	–	–	gain-of-IAA transport for polar but uncharged serine
